Assay results published in patent US7964594B1, “Amino oxazine derivatives” (Hoffmann-La Roche Inc., priority 2009, dated 2011).

Biological target: T1, BACE2 (Rattus norvegicus, UniProt Q6IE75)
T1 construct: endogenous cellular BACE2 in the Ins1e rat cell line; endogenous in cells; host or cells: INS-TMEM27 (INS1e-derived rat insulinoma cell line with doxycycline-inducible full-length hTMEM27)
T1 sequence (Q6IE75 63-514): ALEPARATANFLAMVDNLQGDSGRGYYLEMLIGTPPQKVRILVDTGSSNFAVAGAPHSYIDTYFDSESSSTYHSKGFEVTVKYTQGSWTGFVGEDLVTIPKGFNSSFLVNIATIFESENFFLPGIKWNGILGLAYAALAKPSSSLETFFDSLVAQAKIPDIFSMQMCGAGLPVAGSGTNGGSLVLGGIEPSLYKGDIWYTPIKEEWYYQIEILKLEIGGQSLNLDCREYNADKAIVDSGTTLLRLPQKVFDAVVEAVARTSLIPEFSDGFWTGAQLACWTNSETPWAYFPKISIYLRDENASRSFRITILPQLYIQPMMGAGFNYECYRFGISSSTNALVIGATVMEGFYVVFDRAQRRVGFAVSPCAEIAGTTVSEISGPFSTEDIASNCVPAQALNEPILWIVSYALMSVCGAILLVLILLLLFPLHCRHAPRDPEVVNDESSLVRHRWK
Test: Assay for BACE inhibition by measuring cellular TMEM27 cleavage (INS-TMEM27 cells, ELISA of shed TMEM27)
Assay type: cell-based
Details: inhibition of human TMEM27 cleavage by endogenous cellular BACE2 in Ins1e rat cell line; ELISA of culture medium
Description: Assay for BACE Inhibition by Measuring Cellular TMEM27 Cleavage
The assay uses the principle of inhibition of human TMEM27 cleavage by endogenous cellular BACE2 in the Ins1e rat cell line and shedding from the cell surface into the culture medium, followed by detection in an ELISA assay. Inhibition of BACE2 prevents the cleavage and shedding in a dose-dependent manner.
The stable cell line “INS-TMEM27” represents an INS1e-derived cell line with inducible expression (using the TetOn system) of full-length hTMEM27 in a doxycycline-dependent manner. The cells were cultured throughout the experiment in RPMI1640+Glutamax (Invitrogen) Penicillin/Streptomycin, 10% Fetal bovine serum, […], […], 100 micrograms/ml G418 and 100 microgram/ml hygromycin and were grown in adherent culture at 37° C. in a standard CO2 cell culture incubator.
INS-TMEM27 cells were seeded in 96-well plates. After 2 days in culture, BACE2 inhibitor was added in a range of concentrations as required by the assay and after a further two hours, doxycycline was added to a final concentration of 500 ng/ml. The cells were incubated for a further 46 hours and the supernatant harvested for detection of shed TMEM27.
An ELISA assay (using a pair of mouse anti-human-TMEM27 antibodies, raised against the extracellular domain of TMEM27) was used for detection of TMEM27 in the culture medium. An IC50 for BACE2 inhibition was calculated using the ELISA readout for each inhibitor concentration with standard curve-fitting software XLfit (IDBS) for the Excel spreadsheet program.

| Compound | IC50 |
| --- | --- |
| C[C@]1(c2cc(NC(=O)C3CC3(F)F)ccc2F)N=C(N)OCC12CC2 (mixture of isomers) [Example 55, N-(3-((S)-6-Amino-8-methyl-5-oxa-7-azaspiro[2.5]oct-6-en-8-yl)-4-fluorophenyl)-2,2-difluorocyclopropanecarboxamide] | 2100 nM |
| C[C@@]1(c2cc(NC(=O)C3(C(F)(F)F)CC3)ccc2F)CCOC(N)=N1 [Example 58, 1-Trifluoromethyl-cyclopropanecarboxylic acid [3-((S)-2-amino-4-methyl-5,6-dihydro-4H-[1,3]oxazin-4-yl)-4-fluoro-phenyl]-amide] | 700 nM |
| C[C@]1(c2cc(NC(=O)c3ncc(F)cc3Cl)ccc2F)N=C(N)OCC12CC2 [Example 52, (S)—N-(3-(6-Amino-8-methyl-5-oxa-7-azaspiro[2.5]oct-6-en-8-yl)-4-fluorophenyl)-3-chloro-5-fluoropicolinamide] | 16 nM |
| COc1ccc(C(=O)Nc2ccc(F)c([C@@]3(C)N=C(N)OCC34CC4)c2)nc1 [Example 39] | 91 nM |
| C[C@]1(c2cc(NC(=O)c3ncccc3Cl)ccc2F)N=C(N)OCC12CC2 [Example 48, (S)—N-(3-(6-Amino-8-methyl-5-oxa-7-azaspiro[2.5]oct-6-en-8-yl)-4-fluorophenyl)-3-chloropicolinamide] | 36 nM |
| C[C@]1(c2cc(NC(=O)C3(C(F)(F)F)CC3)ccc2F)N=C(N)OCC12CC2 [Example 54, (S)—N-(3-(6-Amino-8-methyl-5-oxa-7-azaspiro[2.5]oct-6-en-8-yl)-4-fluorophenyl)-1-(trifluoromethyl)cyclopropanecarboxamide] | 810 nM |
| C[C@@]1(c2cc(NC(=O)C3CC3(F)F)ccc2F)CCOC(N)=N1 (stereo partly drawn) [Example 46, 2,2-Difluoro-cyclopropanecarboxylic acid [3-((S)-2-amino-4-methyl-5,6-dihydro-4H-[1,3]oxazin-4-yl)-4-fluoro-phenyl]-amide] | 70 nM |
| C[C@]1(c2cc(NC(=O)c3ccc(F)cn3)ccc2F)N=C(N)OCC12CC2 [Example 40, 5-Fluoro-pyridine-2-carboxylic acid [3-((S)-6-amino-8-methyl-5-oxa-7-aza-spiro[2.5]oct-6-en-8-yl)-4-fluoro-phenyl]-amide] | 39 nM |
| C[C@]1(c2cc(NC(=O)c3ncccc3C(F)(F)F)ccc2F)N=C(N)OCC12CC2 [Example 51, (S)—N-(3-(6-Amino-8-methyl-5-oxa-7-azaspiro[2.5]oct-6-en-8-yl)-4-fluorophenyl)-3-(trifluoromethyl)picolinamide] | 73 nM |
| C[C@]1(c2cc(NC(=O)c3ccc(Cl)cn3)ccc2F)N=C(N)OCC12CC2 [Example 36, 5-Chloro-pyridine-2-carboxylic acid [3-((S)-6-amino-8-methyl-5-oxa-7-aza-spiro[2.5]oct-6-en-8-yl)-4-fluoro-phenyl]-amide] | 16 nM |
| C[C@]1(c2cc(NC(=O)c3ncc(C(F)(F)F)cc3Cl)ccc2F)N=C(N)OCC12CC2 [Example 50, (S)—N-(3-(6-Amino-8-methyl-5-oxa-7-azaspiro[2.5]oct-6-en-8-yl)-4-fluorophenyl)-3-chloro-5-(trifluoromethyl)picolinamide] | 190 nM |
| C[C@@]1(c2cc(NC(=O)c3ccc(OC(F)F)cn3)ccc2F)CCOC(N)=N1 [Example 61, 5-Difluoromethoxy-pyridine-2-carboxylic acid [3-((S)-2-amino-4-methyl-5,6-dihydro-4H-[1,3]oxazin-4-yl)-4-fluoro-phenyl]-amide] | 474 nM |
| C[C@]1(c2cc(NC(=O)c3ncccc3F)ccc2F)N=C(N)OCC12CC2 [Example 37, 3-Fluoro-pyridine-2-carboxylic acid [3-((S)-6-amino-8-methyl-5-oxa-7-aza-spiro[2.5]oct-6-en-8-yl)-4-fluoro-phenyl]-amide] | 40 nM |
| C[C@@]1(c2cc(NC(=O)c3ncc(F)cc3F)ccc2F)CCOC(N)=N1 [Example 33, 3,5-Difluoro-pyridine-2-carboxylic acid [3-((S)-2-amino-4-methyl-5,6-dihydro-4H-[1,3]oxazin-4-yl)-4-fluoro-phenyl]-amide] | 7 nM |

Second part, the compound after the results:

| IC50 | Compound |
| --- | --- |
| 915 nM | C[C@@]1(c2cc(NC(=O)c3ccc(Cl)s3)ccc2F)CCOC(N)=N1 [Example 10, 5-Chloro-thiophene-2-carboxylic acid [3-((S)-2-amino-4-methyl-5,6-dihydro-4H-[1,3]oxazin-4-yl)-4-fluoro-phenyl]-amide] |
| 52 nM | C[C@@]1(c2cc(NC(=O)c3cc4ccccc4s3)ccc2F)CCOC(N)=N1 [Example 13, Benzo[b]thiophene-2-carboxylic acid [3-((S)-2-amino-4-methyl-5,6-dihydro-4H-[1,3]oxazin-4-yl)-4-fluoro-phenyl]-amide] |
| 28 nM | C[C@@]1(c2cc(NC(=O)c3nccc4ccsc34)ccc2F)CCOC(N)=N1 [Example 11, Thieno[2,3-c]pyridine-7-carboxylic acid [3-((S)-2-amino-4-methyl-5,6-dihydro-4H-[1,3]oxazin-4-yl)-4-fluoro-phenyl]-amide] |
| 4 nM | C[C@@]1(c2cc(NC(=O)c3cccc(Cl)n3)ccc2F)CCOC(N)=N1 [Example 32, 6-Chloro-pyridine-2-carboxylic acid [3-((S)-2-amino-4-methyl-5,6-dihydro-4H-[1,3]oxazin-4-yl)-4-fluoro-phenyl]-amide] |
| 340 nM | C[C@@]1(c2cc(NC(=O)c3ccc(F)s3)ccc2F)CCOC(N)=N1 [Example 7, 5-Fluoro-thiophene-2-carboxylic acid [3-((S)-2-amino-4-methyl-5,6-dihydro-4H-[1,3]oxazin-4-yl)-4-fluoro-phenyl]-amide] |
| 3 nM | Cn1ccc(C(=O)Nc2ccc(F)c([C@]3(C)CCOC(N)=N3)c2)n1 [Example 29] |
| 6 nM | C[C@@]1(c2cc(NC(=O)c3ccc(F)cn3)ccc2F)CCOC(N)=N1 [Example 3, 5-Fluoro-pyridine-2-carboxylic acid [3-((S)-2-amino-4-methyl-5,6-dihydro-4H-[1,3]oxazin-4-yl)-4-fluoro-phenyl]-amide] |
| 11 nM | Cc1ccc(C(=O)Nc2ccc(F)c([C@]3(C)CCOC(N)=N3)c2)s1 [Example 17, 5-Methyl-thiophene-2-carboxylic acid [3-((S)-2-amino-4-methyl-5,6-dihydro-4H-[1,3]oxazin-4-yl)-4-fluoro-phenyl]-amide] |
| 48 nM | CC[C@@]1(c2cc(NC(=O)c3ccc(C)s3)ccc2F)CCOC(N)=N1 [Example 20] |
| 230 nM | C[C@@]1(c2cc(NC(=O)c3ccccn3)ccc2F)CCOC(N)=N1 [Example 4, Pyridine-2-carboxylic acid [3-((S)-2-amino-4-methyl-5,6-dihydro-4H-[1,3]oxazin-4-yl)-4-fluoro-phenyl]-amide] |
| 104 nM | Cc1conc1C(=O)Nc1ccc(F)c([C@]2(C)CCOC(N)=N2)c1 [Example 63] |
| 4 nM | Cc1nc(C(=O)Nc2ccc(F)c([C@]3(C)CCOC(N)=N3)c2)cs1 [Example 28] |
| 1 nM | Cc1cc(Cl)cnc1C(=O)Nc1ccc(F)c([C@]2(C)CCOC(N)=N2)c1 [Example 26, 5-Chloro-3-methyl-pyridine-2-carboxylic acid [3-((S)-2-amino-4-methyl-5,6-dihydro-4H-[1,3]oxazin-4-yl)-4-fluoro-phenyl]-amide] |
